From patent publication EP0485091A1, “Process for the production of analogues of immunomycin” (MERCK & CO. INC., priority 1990, dated 1992)

Test system: T lymphocytes
Assay: T-cell proliferation assay (tritiated thymidine uptake, ionomycin + PMA stimulation; also called IL-2 assay)
Format: cell-based, C57B1/6 mice
Conditions: for IC50: Mouse T cell cultures, pulsed with 3H-thymidine for 4 hours prior to harvesting at 48 hours
Experimental: Cells were pelleted by centrifugation at 1500 rpm for 8 minutes. Contaminating red cells were removed by treating the pellet with ammonium chloride lysing buffer (GIBCO) for 2 minutes at 4°C. Cold medium was added and cells were again centrifuged at 1500 rpm for 8 minutes. T lymphocytes were then isolated by separation of the cell suspension on nylon wool columns as follows: Nylon wool columns were prepared by packing approximately 4 grams of washed and dried nylon wool into 20 ml plastic syringes. The columns were sterilized by autoclaving at 250°F for 30 minutes. Nylon wool columns were wetted with warm (37°C) culture medium and rinsed with the same medium. Washed spleen cells resuspended in warm medium were slowly applied to the nylon wool. The columns were then incubated in an upright position at 37°C for 1 hour. Non-adherent […] were eluted from the columns with warm culture medium and the cell suspensions were spun as above.
The cell suspension was immediately distributed into 96 well flat-bottom microculture plates (Costar) at 200 µl/well. […] The proliferation of T lymphocytes was assessed by measurement of tritiated thymidine incorporation. After 44 hours of culturing, the cells were pulse-labelled with 2 µCi/well of tritiated thymidine (NEN, Cambridge, MA). After another 4 hours of incubation, cultures were harvested on glass fiber filters using a multiple sample harvester. Radioactivity of filter discs corresponding to individual wells as measured by standard liquid scintillation counting methods (Betacounter). Mean counts per minute of replicate wells were calculated and the results expressed as percent inhibition of tritiated thymidine uptake (profileration) as follows [drawing 11]
• 1. Mouse T cell cultures were pulsed with ³H-thymidine for 4 hours prior to harvesting at 48 hours. • 2.

Row | Structure (SMILES) | inhibition at 0.01 µg/mL (Mus musculus, T-lymphocyte, 48 h, read-out: percent inhibition of tritiated thymidine uptake (proliferation)) [%] | Inhibition of T-cell proliferation after addition of recombinant human IL-2 (50 units/ml of recombinant human IL-2 added at the initiation of culture) | IC50 (T-lymphocyte) [ng/mL] | IC50 (T-lymphocyte, same value in molar unit) [nM]
1 | C=CC[C@@H]1/C=C(\C)C[C@H](C)C[C@H](OC)[C@H]2O[C@@](O)(C(=O)C(=O)N3CCCC[C@H]3C(=O)O[C@H](/C(C)=C/[C@@H]3CC[C@@H](O)[C@H](OC)C3)[C@H](C)[C@@H](O)CC1=O)[C@H](C)C[C@@H]2OC [L-679,934, reference compound] | 99 | – | – | –
2 | CCC[C@@H]1/C=C(\C)C[C@H](C)C[C@H](OC)[C@H]2O[C@@](O)(C(=O)C(=O)N3CCCC[C@H]3C(=O)O[C@H](/C(C)=C/[C@@H]3CC[C@@H](O)[C@H](OC)C3)[C@H](C)[C@@H](O)CC1=O)[C@H](C)C[C@@H]2OC [fraction 510] | – | reversed | 0.82 | 1.02
